Assay results published in US11484607B2, “PSMA-targeted NIR dyes and their uses” (On Target Laboratories, LLC, priority 2015, dated 2022).
Each block holds one compound with its values, some of them ahead of it.

Tests used:
PSMA = target: T1, PSMA (Homo sapiens, UniProt Q04609); experiment: Relative binding affinity of DUPA-NIR conjugates with respect to DUPA-FITC on 22Rv1 cells, flow cytometry; settings: for Kd: 1 h at 37° C., 100 nM DUPA-FITC; for affinity for PSMA (in words): in vitro binding affinity data
T1 construct: host or cells: 22Rv1 human prostate cancer cells
Method: (§1) FIG. 3—Relative binding affinities of DUPA-NIR conjugates 1-9 with respect to DUPA-FITC (14). PSMA-positive 22Rv1 human prostate cancer cells were incubated for 1 h at 37° C. in the presence of 100 nM DUPA-FITC with increasing concentrations of DUPA-NIR conjugates. […] Cell bound fluorescence was assayed as using flow cytometry.
as §1, with “6—Relative” for “3—Relative”, “with aromatic amino acids linkers” for “1-9”
as §1, with “3 Relative” for “3—Relative”
in vitro studies. […] PSMA-positive 22Rv1 human prostate cancer cells were incubated for 1 h at 37° C. in the presence of 100 nM DUPA-FITC with increasing concentrations of DUPA-NIR conjugates. […] Cell bound fluorescence was assayed as using flow cytometry.
PSMA-positive 22Rv1 human prostate cancer cells were incubated for 1 h at 37° C. in the presence of 100 nM DUPA-FITC with increasing concentrations of DUPA-NIR conjugates. […] Cell bound fluorescence was assayed as using flow cytometry.
as §1, with “24: Relative” for “3—Relative”, “conjugates” for “conjugates 1-9”
PSMA-positive 22Rv1 human prostate cancer cells were incubated for 1 h at 37° C. in the presence of 100 nM DUPA-FITC with increasing concentrations of DUPA-NIR conjugates. […] Cell bound fluorescence was assayed as using flow cytometry
Cancer cells were incubated for 1 h at 37° C. in the presence of 100 nM DUPA-FITC with increasing concentrations of compound 15. […] Cell bound fluorescence was assayed as using flow cytometry.

[1] = system: human prostate tumor xenografts (22Rv1 cells); experiment: Tissue biodistribution and tumor-to-tissue fluorescence ratio of DUPA-NIR conjugates, IVIS imaging; type: in vivo, mice; settings: 2 h after tail vein injection
Method: In vivo studies. More specifically, biodistribution of DUPA-NIR conjugates 1-9 was monitored using fluorescence imaging of mice bearing human prostate tumor xenografts (22Rv1 cells). Male nude mice with 22Rv1 tumor xenografts were injected with DUPA-NIR dye conjugates via tail vein. The mice were euthanized 2 h after administration of the DUPA-NIR dye conjugate, selected tissues were harvested, and tissues were imaged with IVIS imager (ex=745 nm, em=ICG, exposure time=1 s).
The conjugates were also tested to show the ratio of tumor-to-tissue fluorescence. […] After imaging, fluorescence within a Region of interest (ROI) was measured for each tissue using In Vivo imaging software and tumor-to-tissue fluorescence was then calculated
(§2) in vivo studies. […] Male nude mice with 22Rv1 tumor xenografts were injected with DUPA-NIR dye conjugates via tail vein. The mice were euthanized 2 h after administration of the DUPA-NIR dye conjugate, selected tissues were harvested, and tissues were imaged with IVIS imager (ex=745 nm, em=ICG, exposure time=1 s). After imaging, fluorescence within a Region of interest (ROI) was measured for each tissue using In Vivo imaging software and tumor-to-tissue fluorescence was then calculated.
Male nude mice with 22Rv1 tumor xenografts were injected with DUPA-NIR dye conjugates via tail vein. The mice were euthanized 2 h after administration of the DUPA-NIR dye conjugate, selected tissues were harvested, and tissues were imaged with IVIS imager (ex=745 nm, em=ICG, exposure time=1 s). After imaging, fluorescence within a Region of interest (ROI) was measured for each tissue using In Vivo imaging software and tumor-to-tissue fluorescence was then calculated.
as §2, with “In vivo” for “in vivo”

[2] = system: 22Rv1 human prostate tumor xenograft; experiment: Time dependent whole-body fluorescence imaging of DUPA-NIR conjugates, IVIS imager; type: in vivo, mouse; settings: 6 or 20 nmol, imaged at different time intervals
Method: 22Rv1 human prostate tumor xenograft bearing mouse was injected with 20 nmol of 15 and imaged with IVIS imager (ex=745 nm, em=ICG, exposure time=1 s) at different time intervals.
22Rv1 human prostate tumor xenograft bearing mouse was injected with 20 nmol of 23 and imaged with IVIS imager (ex=745 nm, em=ICG, exposure time=1 s) at different time intervals.
22Rv1 human prostate tumor xenograft bearing mouse was injected with 20 nmol of 25 and imaged with IVIS imager (ex=745 nm, em=ICG, exposure time=1 s) at different time intervals
22Rv1 human prostate tumor xenograft bearing mouse was injected with 6 nmol of 35 and imaged with IVIS imager (ex=745 nm, em=ICG, exposure time=1 s) at different time intervals.
22Rv1 human prostate tumor xenograft bearing mouse was injected with 6 nmol of 36 and imaged with IVIS imager (ex=745 nm, em=ICG, exposure time=1 s) at different time intervals.
22Rv1 human prostate tumor xenograft bearing mouse was injected with 20 nmol of 39 and imaged with IVIS imager (ex=745 nm, em=ICG, exposure time=1 s) at different time intervals.
22Rv1 human prostate tumor xenograft bearing mouse was injected with 20 nmol of 40 and imaged with IVIS imager (ex=745 nm, em=ICG, exposure time=1 s) at different time intervals.
22Rv1 human prostate tumor xenograft bearing mouse was injected with 20 nmol of 41 and imaged with IVIS imager (ex=745 nm, em=ICG, exposure time=1 s) at different time intervals.
FIG. 25: Overlay of whole body or half body fluorescence image over white light images after adjusting the threshold. 22Rv1 human prostate tumor xenograft bearing mouse was injected with 20 nmol of 54 and imaged with IVIS imager (ex=745 nm, em=ICG, exposure time=1 s) at different time intervals.
22Rv1 human prostate tumor xenograft bearing mouse was injected with 20 nmol of 55 and imaged with IVIS imager (ex=745 nm, em=ICG, exposure time=1 s) at different time intervals.
22Rv1 human prostate tumor xenograft bearing mouse was injected with 20 nmol of 56 and imaged with IVIS imager (ex=745 nm, em=ICG, exposure time=1 s) at different time intervals.
22Rv1 human prostate tumor xenograft bearing mouse was injected with 20 nmol of 57 and imaged with IVIS imager (ex=745 nm, em=ICG, exposure time=1 s) at different time intervals
22Rv1 human prostate tumor xenograft bearing mouse was injected with 20 nmol of 58 and imaged with IVIS imager (ex=745 nm, em=ICG, exposure time=1 s) at different time intervals
22Rv1 human prostate tumor xenograft bearing mouse was injected with 20 nmol of 60 and imaged with IVIS imager (ex=745 nm, em=ICG, exposure time=1 s) at different time intervals.
in vivo studies. […] 22Rv1 human prostate tumor xenograft bearing mouse was injected with 20 nmol of 63 and imaged with IVIS imager (ex=745 nm, em=ICG, exposure time=1 s) at different time intervals.
22Rv1 human prostate tumor xenograft bearing mouse was injected with 6 nmol of 63 and imaged with IVIS imager (ex=745 nm, em=ICG, exposure time=1 s) at different time intervals.
22Rv1 human prostate tumor xenograft bearing mouse was injected with 20 nmol of 64 and imaged with IVIS imager (ex=745 nm, em=ICG, exposure time=1 s) at different time intervals.
22Rv1 human prostate tumor xenograft bearing mouse was injected with 6 nmol of 15 and imaged with IVIS imager (ex=745 nm, em=ICG, exposure time=1 s) at different time intervals.

basophils = experiment: Basophil activation test (Flow CAST) in human blood samples; type: cell-based
Method: Tolerability Studies: The blood samples were collected into hirudin tubes and used within an hour of collection. For each donor, 4 different tubes were prepared for allergen, positive controls, and negative control. Samples were analyzed using Flow CAST® high sensitivity Basophil Activation Test (BAT). Briefly, stimulation buffer (100 μL, background) or anti-FcεER antibody (100 μL) or fMLP (100 μL) or OTL78 (75 μM in 100 μL of saline) was added to tubes containing stimulation buffer (200 μL). 100 μL of blood was added to each tube and mixed gently. After adding staining reagent (40 μL) containing anti-CD63-CD203c-PE-DY647 and anti-CCR3-PE, each tube was mixed gently and incubated for 15 minutes at 37° C. Lysing reagent (2 mL) was added to each tube, mixed gently, incubated for 5-10 minutes at room temperature, and centrifuged for 5 minutes at 500×g. The supernatant was discarded and the cells were re-suspended in wash buffer (900 μL) and analyzed using flow cytometry. CD63-CD203c-PE-DY647+/CCR3-PE+ cell population considered as the activated basophils.

[3] = conjugates with variable length spacers

T1 sequence (Q04609 whole entry): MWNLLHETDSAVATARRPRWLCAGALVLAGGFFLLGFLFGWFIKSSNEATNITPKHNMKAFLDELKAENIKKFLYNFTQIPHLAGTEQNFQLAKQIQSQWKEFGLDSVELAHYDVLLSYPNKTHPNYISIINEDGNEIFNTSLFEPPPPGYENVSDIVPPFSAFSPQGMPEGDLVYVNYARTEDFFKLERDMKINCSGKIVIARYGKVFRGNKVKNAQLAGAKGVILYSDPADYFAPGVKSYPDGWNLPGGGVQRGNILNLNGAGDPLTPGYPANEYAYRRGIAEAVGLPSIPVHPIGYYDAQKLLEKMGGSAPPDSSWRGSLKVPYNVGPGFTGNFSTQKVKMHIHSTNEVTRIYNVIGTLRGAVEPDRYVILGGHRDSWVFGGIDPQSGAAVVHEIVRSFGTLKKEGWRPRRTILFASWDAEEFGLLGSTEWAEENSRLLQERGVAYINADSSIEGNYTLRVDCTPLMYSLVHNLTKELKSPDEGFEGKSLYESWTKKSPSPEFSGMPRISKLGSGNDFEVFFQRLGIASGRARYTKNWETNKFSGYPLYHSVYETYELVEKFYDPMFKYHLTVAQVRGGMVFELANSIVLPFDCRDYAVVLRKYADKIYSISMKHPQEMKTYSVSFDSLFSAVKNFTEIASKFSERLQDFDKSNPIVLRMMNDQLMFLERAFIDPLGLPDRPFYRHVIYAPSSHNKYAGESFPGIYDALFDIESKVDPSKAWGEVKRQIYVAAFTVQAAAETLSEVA

Kd (PSMA; [3]): 15.2 nM
affinity for PSMA (in words) (PSMA): very high affinity
SMILES: CC1(C)C(/C=C/C2=C(Oc3ccc(C[C@H](NC(=O)CCCCCCCNC(=O)CC[C@H](NC(=O)N[C@@H](CCC(=O)O)C(=O)O)C(=O)O)C(=O)O)cc3)C(=C/C=C3/N(CCCCS(=O)(=O)O)c4ccc(S(=O)(=O)O)cc4C3(C)C)/CCC2)=[N+](CCCCS(=O)(=O)[O-])c2ccc(S(=O)(=O)O)cc21 [Compound 4, DUPA-EAOA-Tyr-S0456]
fluorescence intensity in the tumor / tumor accumulation [1]: higher fluorescence intensity
tumor-to-background ratio (TBR), in words [1]: best

Kd (PSMA; [3]): 35.7 nM
SMILES: CC1(C)C(/C=C/C2=C(Oc3ccc(C[C@H](NC(=O)CCCCCCCNC(=O)[C@H](Cc4ccccc4)NC(=O)[C@H](Cc4ccccc4)NC(=O)CC[C@H](NC(=O)N[C@@H](CCC(=O)O)C(=O)O)C(=O)O)C(=O)O)cc3)C(=C/C=C3/N(CCCCS(=O)(=O)O)c4ccc(S(=O)(=O)O)cc4C3(C)C)/CCC2)=[N+](CCCCS(=O)(=O)[O-])c2ccc(S(=O)(=O)O)cc21 [Compound 6]
fluorescence intensity in the tumor / tumor accumulation [1]: lower
tumor-to-background ratio (TBR), in words [1]: second

Kd (PSMA; conjugates with aromatic linkers): 7.5 nM
affinity for PSMA (in words) (PSMA): very high affinity
SMILES: CC1(C)C(/C=C/C2=C(Oc3ccc(C[C@H](NC(=O)[C@H](Cc4ccccc4)NC(=O)[C@H](Cc4ccccc4)NC(=O)CCCCCCCNC(=O)CC[C@H](NC(=O)N[C@@H](CCC(=O)O)C(=O)O)C(=O)O)C(=O)O)cc3)C(=C/C=C3/N(CCCCS(=O)(=O)O)c4ccc(S(=O)(=O)O)cc4C3(C)C)/CCC2)=[N+](CCCCS(=O)(=O)[O-])c2ccc(S(=O)(=O)O)cc21 [Compound 23]
whole-body imaging [2]: very good whole-body imaging data within 2-4 hours

More lines, now with the values behind:

SMILES: CC1(C)C(/C=C/C2=C(Oc3ccc(C[C@H](NC(=O)CCCCCCCNC(=O)[C@H](Cc4ccccc4)NC(=O)[C@H](Cc4ccccc4)NC(=O)C[C@H](NC(=O)CC[C@H](NC(=O)N[C@@H](CCC(=O)O)C(=O)O)C(=O)O)C(=O)O)C(=O)O)cc3)C(=C/C=C3/N(CCCCS(=O)(=O)O)c4ccc(S(=O)(=O)O)cc4C3(C)C)/CCC2)=[N+](CCCCS(=O)(=O)[O-])c2ccc(S(=O)(=O)O)cc21 [Compound 7]
Kd (PSMA; [3]): 26.8 nM
fluorescence intensity in the tumor / tumor accumulation [1]: lower
tumor-to-background ratio (TBR), in words [1]: third best

SMILES: CC1(C)C(/C=C/C2=C(Oc3ccc(C[C@H](NC(=O)[C@H](CCCNC(=N)N)NC(=O)[C@H](CCCNC(=N)N)NC(=O)CCCCCCCNC(=O)CC[C@H](NC(=O)N[C@@H](CCC(=O)O)C(=O)O)C(=O)O)C(=O)O)cc3)C(=C/C=C3/N(CCCCS(=O)(=O)O)c4ccc(S(=O)(=O)O)cc4C3(C)C)/CCC2)=[N+](CCCCS(=O)(=O)[O-])c2ccc(S(=O)(=O)O)cc21 [Compound 39]
whole-body imaging [2]: very good whole-body imaging

SMILES: CC1(C)C(=CC=C2CCCC(C=CC3=[N+](CCCCS(=O)(=O)[O-])c4ccc(S(=O)(=O)O)cc4C3(C)C)=C2Oc2ccc(CC(NC(=O)CC(NC(=O)C(Cc3ccccc3)NC(=O)C(Cc3ccccc3)NC(=O)CCCCCCCNC(=O)CCC(NC(=O)NC(CCC(=O)O)C(=O)O)C(=O)O)C(=O)O)C(=O)O)cc2)N(CCCCS(=O)(=O)O)c2ccc(S(=O)(=O)O)cc21 (stereo not drawn) [Compound 49]
affinity for PSMA (in words) (PSMA): low binding affinity
fluorescence intensity in the tumor / tumor accumulation [1]: very high tumor accumulation (high fluorescence intensity)
tumor-to-background ratio (TBR), in words [1]: good

SMILES: CSCC[C@H](NC=O)C(=O)N[C@@H](CC(C)C)C(=O)N[C@@H](Cc1ccccc1)C(=O)O [fMLP, N-formylmethionyl-leucyl-phenylalanine]
positive response (% activated basophils) (basophils; FIG. 47E): 73.5%
stimulated index (basophils; FIG. 47E, ≥2 considered positive response): 29.5
Percent of basophile activation, Avg (basophils; average of 3 healthy subjects): 60%
Percent of basophile activation, Subject 1 (basophils; healthy subjects, OTL78 75 μM): 73.5%
Percent of basophile activation, Subject 2 (basophils; healthy subjects, OTL78 75 μM): 55.9%
Percent of basophile activation, Subject 3 (basophils; healthy subjects, OTL78 75 μM): 50.6%
SI = Avg/background (basophils; stimulation index, ≥2 considered positive response): 23.1
